Results: the NIST ThermoML archive (doi:10.1016/j.jct.2005.07.009)
Numbers after ± are expanded uncertainties.

Experiments:
[1] = xn = mol fraction of the nth substance listed; details: 298.15 K, 101 kPa, Liquid, Vibrating tube method
[2] = excess molar enthalpy (molar enthalpy of mixing); xn = mol fraction of the nth substance listed; details: 298.15 K, 101 kPa, Liquid

BrCCBr [1,2-dibromoethane] + CCCC(=O)OCC
Details | excess molar enthalpy [kcal/mol] | mass density [kg/m3]
[1], x2 = 0.08 | – | 2015.53 ± 1.4
[1], x2 = 0.1235 | – | 1937.68 ± 1.5
[1], x2 = 0.1689 | – | 1859.7 ± 1.6
[1], x2 = 0.2131 | – | 1787.18 ± 1.7
[1], x2 = 0.311 | – | 1637.22 ± 1.9
[1], x2 = 0.3652 | – | 1559.91 ± 2
[1], x2 = 0.424 | – | 1480.28 ± 2.1
[1], x2 = 0.4807 | – | 1407.25 ± 2.1
[1], x2 = 0.5444 | – | 1329.31 ± 2.2
[1], x2 = 0.6754 | – | 1181.51 ± 2.3
[1], x2 = 0.7549 | – | 1098.99 ± 2.3
[1], x2 = 0.8227 | – | 1032.55 ± 2.3
[1], x2 = 0.9026 | – | 958.45 ± 2.3
[2], x2 = 0.0385 | 0.005 ± 0.000454 | –
[2], x2 = 0.0839 | 0.00753 ± 0.000478 | –
[2], x2 = 0.1324 | 0.00841 ± 0.000502 | –
[2], x2 = 0.1841 | 0.00779 ± 0.000502 | –
[2], x2 = 0.2355 | 0.00421 ± 0.00043 | –
[2], x2 = 0.2844 | -0.0011 ± 0.000382 | –
[2], x2 = 0.3336 | -0.00743 ± 0.000478 | –
[2], x2 = 0.3803 | -0.0131 ± 0.000598 | –
[2], x2 = 0.4245 | -0.0174 ± 0.000693 | –
[2], x2 = 0.4313 | -0.0181 ± 0.000693 | –
[2], x2 = 0.458 | -0.0205 ± 0.000741 | –
[2], x2 = 0.5024 | -0.0217 ± 0.000789 | –
[2], x2 = 0.5565 | -0.023 ± 0.000813 | –
[2], x2 = 0.6234 | -0.0229 ± 0.000813 | –
[2], x2 = 0.6941 | -0.0215 ± 0.000789 | –
[2], x2 = 0.7723 | -0.0185 ± 0.000717 | –
[2], x2 = 0.851 | -0.0141 ± 0.000621 | –
[2], x2 = 0.9264 | -0.00803 ± 0.000502 | –

BrCCCCCBr [1,5-dibromopentane] + CCCC(=O)OCC
Details | excess molar enthalpy [kcal/mol] | mass density [kg/m3]
[1], x2 = 0.059 | – | 1646.96 ± 2.7
[1], x2 = 0.1242 | – | 1594.68 ± 2.7
[1], x2 = 0.1821 | – | 1548 ± 2.7
[1], x2 = 0.238 | – | 1502.9 ± 2.7
[1], x2 = 0.3008 | – | 1451.99 ± 2.7
[1], x2 = 0.4202 | – | 1354.48 ± 2.7
[1], x2 = 0.5373 | – | 1258.57 ± 2.7
[1], x2 = 0.5953 | – | 1210.74 ± 2.6
[1], x2 = 0.6536 | – | 1162.53 ± 2.6
[1], x2 = 0.7109 | – | 1115.08 ± 2.6
[1], x2 = 0.7685 | – | 1067.15 ± 2.5
[1], x2 = 0.8314 | – | 1014.81 ± 2.5
[1], x2 = 0.8895 | – | 966.17 ± 2.4
[2], x2 = 0.0632 | 0.00545 ± 0.000454 | –
[2], x2 = 0.1296 | 0.00906 ± 0.000526 | –
[2], x2 = 0.1974 | 0.0117 ± 0.00055 | –
[2], x2 = 0.2617 | 0.012 ± 0.000574 | –
[2], x2 = 0.3247 | 0.0105 ± 0.00055 | –
[2], x2 = 0.3843 | 0.00777 ± 0.000502 | –
[2], x2 = 0.4396 | 0.00466 ± 0.000454 | –
[2], x2 = 0.4909 | 0.000693 ± 0.000382 | –
[2], x2 = 0.5367 | -0.00239 ± 0.00043 | –
[2], x2 = 0.5745 | -0.00511 ± 0.000454 | –
[2], x2 = 0.6072 | -0.00657 ± 0.000478 | –
[2], x2 = 0.6211 | -0.00755 ± 0.000502 | –
[2], x2 = 0.6798 | -0.00937 ± 0.000526 | –
[2], x2 = 0.7429 | -0.0104 ± 0.00055 | –
[2], x2 = 0.8114 | -0.00944 ± 0.000526 | –
[2], x2 = 0.878 | -0.00696 ± 0.000502 | –
[2], x2 = 0.9431 | -0.00356 ± 0.00043 | –

BrCCCBr [1,3-dibromopropane] + CCOC(C)=O
Details | excess molar enthalpy [kcal/mol] | mass density [kg/m3]
[1], x2 = 0.057 | – | 1910.48 ± 1.3
[1], x2 = 0.1189 | – | 1845.49 ± 1.5
[1], x2 = 0.1785 | – | 1782.59 ± 1.6
[1], x2 = 0.2647 | – | 1691.31 ± 1.8
[1], x2 = 0.3199 | – | 1632.54 ± 2
[1], x2 = 0.4187 | – | 1526.9 ± 2.2
[1], x2 = 0.466 | – | 1476.19 ± 2.2
[1], x2 = 0.5091 | – | 1429.89 ± 2.3
[1], x2 = 0.6323 | – | 1296.79 ± 2.4
[1], x2 = 0.6746 | – | 1250.93 ± 2.4
[1], x2 = 0.7715 | – | 1145.6 ± 2.5
[1], x2 = 0.8309 | – | 1080.67 ± 2.5
[1], x2 = 0.8892 | – | 1016.69 ± 2.4
[1], x2 = 0.9615 | – | 937.08 ± 2.4
[2], x2 = 0.0601 | 0.0131 ± 0.000574 | –
[2], x2 = 0.127 | 0.0223 ± 0.000789 | –
[2], x2 = 0.195 | 0.0295 ± 0.000956 | –
[2], x2 = 0.2607 | 0.0333 ± 0.00105 | –
[2], x2 = 0.3258 | 0.0342 ± 0.00108 | –
[2], x2 = 0.3855 | 0.0332 ± 0.00105 | –
[2], x2 = 0.4407 | 0.0304 ± 0.00098 | –
[2], x2 = 0.4829 | 0.0271 ± 0.000908 | –
[2], x2 = 0.487 | 0.0269 ± 0.000908 | –
[2], x2 = 0.5298 | 0.0219 ± 0.000789 | –
[2], x2 = 0.5741 | 0.0169 ± 0.000669 | –
[2], x2 = 0.628 | 0.0109 ± 0.00055 | –
[2], x2 = 0.687 | 0.00531 ± 0.000454 | –
[2], x2 = 0.7498 | 0.000765 ± 0.000382 | –
[2], x2 = 0.8153 | -0.00174 ± 0.000406 | –
[2], x2 = 0.8813 | -0.00241 ± 0.00043 | –
[2], x2 = 0.9434 | -0.00136 ± 0.000406 | –

BrCCCCCCBr [1,6-dibromohexane] + CCOC=O
Details | excess molar enthalpy [kcal/mol] | mass density [kg/m3]
[1], x2 = 0.1144 | – | 1557.48 ± 2.6
[1], x2 = 0.2023 | – | 1519.96 ± 2.7
[1], x2 = 0.2923 | – | 1477.74 ± 2.8
[1], x2 = 0.3593 | – | 1443.52 ± 2.8
[1], x2 = 0.5084 | – | 1357.33 ± 2.9
[1], x2 = 0.571 | – | 1316.38 ± 2.9
[1], x2 = 0.6288 | – | 1275.6 ± 2.9
[1], x2 = 0.6788 | – | 1237.72 ± 2.8
[1], x2 = 0.7728 | – | 1159.02 ± 2.8
[1], x2 = 0.8233 | – | 1112.18 ± 2.7
[1], x2 = 0.8545 | – | 1081.46 ± 2.7
[1], x2 = 0.9003 | – | 1033.41 ± 2.6
[2], x2 = 0.1027 | 0.00447 ± 0.000454 | –
[2], x2 = 0.2124 | 0.127 ± 0.00335 | –
[2], x2 = 0.3116 | 0.161 ± 0.00406 | –
[2], x2 = 0.4024 | 0.181 ± 0.00454 | –
[2], x2 = 0.4766 | 0.19 ± 0.00478 | –
[2], x2 = 0.547 | 0.19 ± 0.00478 | –
[2], x2 = 0.6032 | 0.183 ± 0.00478 | –
[2], x2 = 0.6673 | 0.169 ± 0.0043 | –
[2], x2 = 0.7137 | 0.154 ± 0.00406 | –
[2], x2 = 0.7608 | 0.136 ± 0.00359 | –
[2], x2 = 0.8062 | 0.112 ± 0.00287 | –
[2], x2 = 0.852 | 0.0893 ± 0.00239 | –
[2], x2 = 0.8953 | 0.0643 ± 0.00179 | –
[2], x2 = 0.9357 | 0.0394 ± 0.0012 | –
[2], x2 = 0.9691 | 0.0193 ± 0.000741 | –
